Data taken from US8067189B2, “Methods for determining sensitivity to vascular endothelial growth factor receptor-2 modulators by measuring the level of collagen type IV” (Bristol-Myers Squibb Company, priority 2005, dated 2011).

Key:
[1] = system: VEGFR-2 co-expressed biomarkers (mRNA levels in xenograft tumors); experiment: Gene expression profiling (Affymetrix mouse 430A arrays) of un-treated vs treated xenograft tumors; assay type: in vivo
Procedure: (§1) Tumors were propagated in nude mice as subcutaneous (sc) transplants using L2987 and HCT-116 cancer cell lines. Tumor passage occurred approximately every two to four weeks. Tumors were then allowed to grow to the pre-determined size window (100-200 mm^3, tumors outside the range were excluded) and animals were evenly distributed to various treatment and control groups. Animals were treated with the example VEGFR-2 inhibitor (100 mg/kg 1 qd×14 days). Treated animals were checked daily for treatment related toxicity/mortality. Each group of animals was weighed before the initiation of treatment (Wt1) and then again following the last treatment dose (Wt2). The difference in body weight (Wt2−Wt1) provided a measure of treatment-related toxicity. Tumor response was determined by measurement of tumors with a caliper twice a week, until the tumors reached a predetermined target size. Animals that were distributed to various treatment and control groups during the study were eventually sacrificed to obtain tumor and blood samples for genomic and protein analysis.
The colon tumor samples obtained from cancer patients were snap frozen in liquid nitrogen within 20 minutes of resection and stored thereafter at −80° C. The mouse xenograft tumor samples were split into two halves. One half was mixed in a vial of 10% formalin to be used for IHC and the other half was mixed in 1.0 ml of RNAlater™ RNA Stabilization Reagent (Ambion, Inc., Austin, Tex.) held at room temperature for 30 minutes then stored at −80° C. Total RNA was extracted from the tumor samples using the RNeasy Kit™ (Qiagen, Valencia Calif.). At least 1 μg total RNA with a 260/280 ratio ≧1.8 by spectrophotometry (DU640 UV, Beckman Coulter, Fullerton, Calif.) was required for transcriptional profiling. Briefly, the tumor samples were homogenized in a lysis-binding solution supplied by Qiagen. An equal volume of ethanol was mixed into each sample, the mixture was passed through the filter cartridges provided, and the rest of the extraction protocol was followed (Ambion). RNA yield and quality were assessed on a standard 1% agarose gel. A ratio 28 s/18 s RNA in the range of 1.5 to 2.5 indicated high quality RNA that is free of degradation. RNA samples were stored at −80° C.
Transcriptional profiling was performed on the RNA obtained from the tumor samples. The Affymetrix GeneChip system (Affymetrix, Santa Clara, Calif.) was used for hybridization and scanning of the human U133A and mouse 430A arrays. Data were preprocessed using the MAS 5.0 software. Generation of cRNA followed a standard T7 amplification protocol. Total RNA was reverse-transcribed with SuperScript II (Gibco, Carlsbad, Calif.) in the presence of T7-(dT)24 primer to generate first strand cDNA. A second-strand cDNA synthesis was performed in the presence of DNA Polymerase I, DNA ligase, and RNase H (Gibco). The resulting double-stranded cDNA was blunt-ended using T4 DNA polymerase. This double-stranded cDNA was then transcribed into cRNA in the presence of biotin-ribonucleotides using the BioArray High Yield RNA transcript labeling kit (Enzo Life Sciences, Farmingdale, N.Y.). The amplified, biotin-labeled cRNA was purified using Qiagen RNeasy columns (Qiagen Sciences), quantified and fragmented at 94° C. for 35 minutes in the presence of fragmentation buffer (1×). Fragmented cRNA was hybridized to the Affymetrix U113A and 430A arrays overnight at 42° C. The arrays were then placed in the fluidics stations for staining and washing as recommended by Affymetrix protocols. The chips were scanned and raw intensity values were generated for each probe on the arrays.
The 94 co-expressed VEGFR-2 genes identified from human cancers profiled on U133A arrays were used to identify their corresponding mouse homolog from mouse xenografts tumors profiled on mouse 430A arrays. […]

Collagen type IV = experiment: ELISA of blood samples from tumor bearing mice; assay type: in vivo, mouse; conditions: 100 mg/kg 1 qd×14 days
Procedure: as §1, with “The difference in body weight (Wt2−Wt1) provided a measure of treatment-related toxicity.” left out, “Animals that were distributed to various treatment and control groups during the study were eventually sacrificed to obtain tumor and blood samples for genomic and protein analysis.” left out
(§2) An ELISA method for the detection and measurement of Collagen Type IV and VE-Cadherin on human plasma or any biological sample where the proteins must be detected and measured is described. […] The reaction was terminated by addition of acid and absorbance was measured at 450 nm. A standard curve was prepared from collagen type IV standard dilutions and collagen type IV samples concentration determined. […] The reaction was terminated by addition of acid and absorbance was measured at 450 nm. A standard curve was prepared from VE-cadherin standard dilutions and VE-cadherin samples concentration determined. […]

VE-Cadherin = experiment: ELISA of blood samples from tumor bearing mice; assay type: in vivo, mouse; conditions: 100 mg/kg 1 qd×14 days
Procedure: as §1, with “The difference in body weight (Wt2−Wt1) provided a measure of treatment-related toxicity.” left out, “Animals that were distributed to various treatment and control groups during the study were eventually sacrificed to obtain tumor and blood samples for genomic and protein analysis.” left out
as §2

SMILES: Cc1cc2c(F)c(Oc3ncnn4cc(OC[C@@H](C)OC(=O)[C@H](C)N)c(C)c34)ccc2[nH]1 [example VEGFR-2 inhibitor, [(1R),2S]-2-Aminopropionic acid 2-[4-(4-fluoro-2-methyl-1H-indol-5-yloxy)-5-methylpyrrolo[2,1-f][1,2,4]triazin-6-yloxy]-1-methylethyl ester]
- fold-change mRNA, Tie1 ([1]; mouse 430A probe 1416238_at, 100 mg/kg 1 qd×14 days, t-test P 0.00103262): 11
- fold-change mRNA, endoglin (Eng) ([1]; mouse 430A probe 1417271_a_at, 100 mg/kg 1 qd×14 days, t-test P 0.021873085): 2
- fold-change mRNA, Prg1 ([1]; mouse 430A probe 1417426_at, 100 mg/kg 1 qd×14 days, t-test P 0.034821585): 2
- fold-change mRNA, Eltd1 ([1]; mouse 430A probe 1418059_at, 100 mg/kg 1 qd×14 days, t-test P 0.018655985): 2
- direction of change in mRNA levels, Tek ([1]; mouse 430A probe 1418788_at): no
- fold-change mRNA, Tek ([1]; mouse 430A probe 1418788_at, 100 mg/kg 1 qd×14 days, t-test P 0.047098006): 1
- direction of change in mRNA levels, S100a8 ([1]; mouse 430A probe 1419394_s_at): no
- fold-change mRNA, S100a8 ([1]; mouse 430A probe 1419394_s_at, 100 mg/kg 1 qd×14 days, t-test P 0.040857487): 1
- fold-change mRNA, C1qr1 (Ly68) ([1]; mouse 430A probe 1419589_at, 100 mg/kg 1 qd×14 days, t-test P 0.000005): 5
- fold-change mRNA, Agtrl1 ([1]; mouse 430A probe 1423037_at, 100 mg/kg 1 qd×14 days, t-test P 5.54812E−04): 4
- fold-change mRNA, nidogen 2 (Nid2) ([1]; mouse 430A probe 1423516_a_at, 100 mg/kg 1 qd×14 days, t-test P 0.024126268): 3
- direction of change in mRNA levels, Col16a1 ([1]; mouse 430A probe 1427986_a_at): no
- fold-change mRNA, Col4a1 ([1]; mouse 430A probe 1427986_a_at, 100 mg/kg 1 qd×14 days, t-test P 0.000014): 4
- fold-change mRNA, Col16a1 ([1]; mouse 430A probe 1427986_a_at, 100 mg/kg 1 qd×14 days, t-test P 0.014896833): 1
- fold-change mRNA, VE-Cadherin (Cdh5) ([1]; mouse 430A probe 1433956_at, 100 mg/kg 1 qd×14 days, t-test P 0.001154369): 2
- direction of change in mRNA levels, Pkig ([1]; mouse 430A probe 1434820_s_at): no
- fold-change mRNA, Pkig ([1]; mouse 430A probe 1434820_s_at, 100 mg/kg 1 qd×14 days, t-test P 0.032286798): 1
- fold-change mRNA, Agtrl1 ([1]; mouse 430A probe 1438651_a_at, 100 mg/kg 1 qd×14 days, t-test P 0.026038828): 2
- fold-change mRNA, Gng11 ([1]; mouse 430A probe 1448942_at, 100 mg/kg 1 qd×14 days, t-test P 0.001326667): 2
- direction of change in mRNA levels, Cav1 ([1]; mouse 430A probe 1449145_a_at): no
- fold-change mRNA, Cav1 ([1]; mouse 430A probe 1449145_a_at, 100 mg/kg 1 qd×14 days, t-test P 2.72030E−04): 1
- direction of change in mRNA levels, Pde1a ([1]; mouse 430A probe 1449298_a_at): no
- fold-change mRNA, Pde1a ([1]; mouse 430A probe 1449298_a_at, 100 mg/kg 1 qd×14 days, t-test P 0.025570996): 1
- fold-change mRNA, Col4a1 ([1]; mouse 430A probe 1452035_at, 100 mg/kg 1 qd×14 days, t-test P 0.000018): 6
- amount of Collagen type IV protein detected in the blood following treatment (Collagen type IV): decreased to levels observed in the healthy mice bearing no tumors
- amount of VE-Cadherin protein detected in the blood following treatment (VE-Cadherin): decreased to levels observed in the healthy mice bearing no tumors
